Measurements as given in the supplement of paper PMC10307832.

How the values were obtained:
Assay in all cases: relative viability (nuclei count vs DMSO), 5 days (fraction); higher = more cells survive
Dovitinib + Navitoclax = compound: CN1CCN(c2ccc3nc(-c4c(N)c5c(F)cccc5[nH]c4=O)[nH]c3c2)CC1 [Dovitinib] + CC1(C)CCC(c2ccc(Cl)cc2)=C(CN2CCN(c3ccc(C(=O)NS(=O)(=O)c4ccc(N[C@H](CCN5CCOCC5)CSc5ccccc5)c(S(=O)(=O)C(F)(F)F)c4)cc3)CC2)C1 [Navitoclax] (partner 0.5 µM)
How it was run: (§1)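 Relative viability divides the nuclei count in treated wells by that in vehicle wells. Lung cancer cell lines were seeded in 1536-well plates, dosed by pin tool the next day, and fixed and stained after 5 days in one step with final 0.05% Triton X-100, 1% formaldehyde and 1 ug/ml Hoechst. Dosing was a single drug or a fixed anchor-drug dose plus five library-drug doses (not always all listed) in √10 steps, and values are medians of duplicate plates imaged at 4×.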

Dovitinib + Luminespib = compound: CN1CCN(c2ccc3nc(-c4c(N)c5c(F)cccc5[nH]c4=O)[nH]c3c2)CC1 [Dovitinib] + CCNC(=O)c1noc(-c2cc(C(C)C)c(O)cc2O)c1-c1ccc(CN2CCOCC2)cc1 [Luminespib] (partner 0.01 µM)
How it was run: as §1

Dovitinib + Foretinib = compound: CN1CCN(c2ccc3nc(-c4c(N)c5c(F)cccc5[nH]c4=O)[nH]c3c2)CC1 [Dovitinib] + COc1cc2c(Oc3ccc(NC(=O)C4(C(=O)Nc5ccc(F)cc5)CC4)cc3F)ccnc2cc1OCCCN1CCOCC1 [Foretinib] (partner 0.25 µM)
How it was run: as §1

Dovitinib + Linsitinib = compound: CN1CCN(c2ccc3nc(-c4c(N)c5c(F)cccc5[nH]c4=O)[nH]c3c2)CC1 [Dovitinib] + C[C@]1(O)C[C@@H](c2nc(-c3ccc4ccc(-c5ccccc5)nc4c3)c3c(N)nccn32)C1 [Linsitinib] (partner 1 µM)
How it was run: as §1

| Cell Line | relative viability (Dovitinib + Navitoclax; first compound 0.02 µM) | relative viability (Dovitinib + Navitoclax; first compound 0.06325 µM) | relative viability (Dovitinib + Navitoclax; first compound 0.2 µM) | relative viability (Dovitinib + Navitoclax; first compound 0.6325 µM) | relative viability (Dovitinib + Navitoclax; first compound 2 µM) | relative viability (Dovitinib + Luminespib; first compound 0.02 µM) | relative viability (Dovitinib + Luminespib; first compound 0.06325 µM) | relative viability (Dovitinib + Luminespib; first compound 0.2 µM) | relative viability (Dovitinib + Luminespib; first compound 0.6325 µM) | relative viability (Dovitinib + Luminespib; first compound 2 µM) | relative viability (Dovitinib + Foretinib; first compound 0.02 µM) | relative viability (Dovitinib + Foretinib; first compound 0.06325 µM) | relative viability (Dovitinib + Foretinib; first compound 0.2 µM) | relative viability (Dovitinib + Foretinib; first compound 0.6325 µM) | relative viability (Dovitinib + Foretinib; first compound 2 µM) | relative viability (Dovitinib + Linsitinib; first compound 0.02 µM) | relative viability (Dovitinib + Linsitinib; first compound 0.06325 µM) | relative viability (Dovitinib + Linsitinib; first compound 0.2 µM) | relative viability (Dovitinib + Linsitinib; first compound 0.6325 µM) | relative viability (Dovitinib + Linsitinib; first compound 2 µM) |
| --- | --- | --- | --- | --- | --- | --- | --- | --- | --- | --- | --- | --- | --- | --- | --- | --- | --- | --- | --- | --- |
| NCI-H1734 | 0.876 | 0.826 | 0.849 | 0.851 | 0.822 | 0.177 | 0.231 | 0.185 | 0.182 | 0.198 | 0.9 | 0.813 | 0.834 | 0.735 | 0.834 | 0.961 | 0.862 | 0.843 | 0.902 | 0.833 |
| NCI-H1755 | 1.02 | 1 | 1.02 | 0.992 | 1.05 | 0.41 | 0.305 | 0.417 | 0.54 | 0.508 | 0.935 | 0.895 | 1.03 | 0.92 | 0.969 | 0.968 | 0.976 | 0.94 | 1.01 | 0.998 |
| NCI-H1793 | 0.407 | 0.359 | 0.456 | 0.476 | 0.373 | 0.199 | 0.164 | 0.165 | 0.211 | 0.167 | 0.775 | 0.532 | 0.684 | 0.604 | 0.745 | 0.964 | 0.679 | 0.856 | 0.754 | 0.834 |
| NCI-H1915 | 0.797 | 0.749 | 0.767 | 0.752 | 0.801 | 0.717 | 0.897 | 0.884 | 0.775 | 0.781 | 1.07 | 1.08 | 1.1 | 1.07 | 1.06 | 1.09 | 1.09 | 1.08 | 1.09 | 1.05 |
| NCI-H1944 | 1.01 | 0.995 | 1.02 | 1.08 | 1.1 | 0.643 | 0.773 | 0.757 | 0.704 | 0.715 | 0.833 | 0.906 | 0.864 | 0.903 | 0.86 | 1.14 | 1.18 | 1.15 | 1.22 | 1.18 |
| NCI-H1975 | 1.07 | 1.01 | 1.09 | 1 | 1.2 | 0.991 | 0.19 | 0.422 | 0.146 | 0.217 | 1.01 | 0.962 | 0.927 | 0.989 | 0.975 | 0.903 | 0.954 | 0.915 | 0.934 | 1.09 |
| NCI-H1993 | 1.07 | 0.963 | 0.965 | 1.02 | 0.934 | 0.873 | 0.716 | 0.816 | 0.728 | 0.346 | 0.759 | 0.714 | 0.742 | 0.771 | 0.771 | 0.774 | 0.678 | 0.657 | 0.695 | 0.808 |
| NCI-H2009 | 1.14 | 1.15 | 1.2 | 1.19 | 1.19 | 0.974 | 1.11 | 0.981 | 0.973 | 1.13 | 1.16 | 1.25 | 1.22 | 1.15 | 1.27 | 1.16 | 1.18 | 1.15 | 1.2 | 1.2 |
| NCI-H2023 | 0.996 | 1.03 | 1.04 | 0.945 | 0.929 | 0.853 | 0.627 | 0.809 | 0.897 | 0.833 | 0.707 | 0.935 | 0.788 | 0.868 | 0.857 | 0.744 | 0.638 | 0.734 | 0.741 | 0.595 |
| NCI-H2085 | 1.05 | 1.09 | 1.08 | 1.07 | 1.1 | 0.41 | 0.457 | 0.485 | 0.495 | 0.484 | 1.01 | 1.16 | 1.01 | 0.961 | 1.01 | 0.927 | 1.08 | 1.07 | 0.913 | 0.917 |
| NCI-H2087 | 1.07 | 0.941 | 1.01 | 1.07 | 0.981 | 0.148 | 0.155 | 0.184 | 0.212 | 0.137 | 1.19 | 1.15 | 1.14 | 1.05 | 1.16 | 0.953 | 0.943 | 1.09 | 1 | 0.825 |
| NCI-H2126 | 0.857 | 0.886 | 0.874 | 0.81 | 0.873 | 0.937 | 0.864 | 1.09 | 0.877 | 0.83 | 1.17 | – | 1.3 | 1.14 | 1.15 | 0.697 | 0.691 | 0.748 | 0.747 | 0.696 |
| NCI-H2228 | 0.897 | 1.16 | 0.833 | 0.908 | 0.885 | 0.104 | 0.151 | 0.161 | 0.141 | 0.172 | 0.9 | 0.832 | 0.928 | 1.08 | 0.915 | 0.789 | 0.632 | 0.669 | 0.967 | 0.633 |
| NCI-H2347 | 0.892 | 0.812 | 0.86 | 0.707 | 0.932 | 0.426 | 0.442 | 0.661 | 0.357 | 0.255 | 1.58 | 0.902 | 0.83 | 1.2 | 1.02 | 0.997 | 0.892 | 0.953 | 0.978 | 0.969 |
| NCI-H2405 | 0.897 | 0.836 | 0.86 | 0.807 | 1.32 | 0.657 | 0.579 | 0.7 | 0.58 | 0.817 | 1.02 | 0.977 | 1.05 | 1.04 | 1.11 | 0.954 | 0.873 | 0.971 | 0.873 | 1.05 |
| NCI-H3122 | 1.05 | 1.03 | 0.954 | 1.02 | 1.07 | 0.0862 | 0.096 | 0.092 | 0.0979 | 0.112 | 1.06 | 0.963 | 0.875 | 0.985 | 0.853 | 1 | 0.95 | 1.07 | 1.1 | 0.991 |
